Reference: patent US20130150384A1, “METHOD FOR TREATMENT OF BRAIN CANCERS” (KOREA INSTITUTE OF SCIENCE AND TECHNOLOGY, priority 2008, published 2013)
Entries after “also recorded” stand apart in the source; their conditions may differ.

What was measured:
HEK293T cell line = test: Block against TFLLR-induced intracellular Ca^2+ release in HEK293T; type: cell-based; details: 10 mM caffeine, 30 μM TFLLR
U87MG cells = test: Xenograft tumor growth assay; type: in vivo, athymic mice (Balb/c nu/nu); details: caffeine 1 mg/ml in drinking water from day 7, subcutaneous U87MG, 4 weeks
Method: Five-week-old athymic mice (Balb/c nu/nu) were obtained from Central Lab. Animal Inc. (Japan). For the xenograft tumor growth assay, U87MG cells (3×10^5 cells/150 ul PBS) were injected subcutaneously into the right flanks of the mice (n=5 to 10 mice per group), and the experiment was conducted in triplicate. […] The control animals were given distilled water. Tumor mass was estimated twice per week for 4 weeks, and tumor volumes were calculated by the formula: […]

[1] = system: human cell line (SH-SY5Y, ATCC); test: Block against bradykinin-induced intracellular Ca^2+ release in human glioblastoma cell line; type: cell-based; details: 10 mM caffeine, 10 μM bradykinin
human U87MG = test: Survival in orthotropic implantation model; details: 1 mg/ml caffeine containing drinking water, intracranial U87MG
glioma = test: Soft agar assay (colony formation); type: cell-based, human; details: 0.5, 1, 2, 5, or 10 mM caffeine, 14 to 17 days
Method: Cells (1×10^4) were seeded into 6-well plates in a soft agar (0.3%, Difco) overlaying a 0.6% base agar. […] Cells were incubated at 37 for 14 to 17 days to allow colonies to develop. Afterward colonies were stained with 0.05% cresyl violet and photographed. […] Each assay was done in triplicate (n=3)

GBM cells = test: Ca^2+ imaging of Fura2-AM loaded GBM cells; type: cell-based, human
Text: Error bars represent SEM.
It is hypothesized that these molecules existing in the Ca^2+ release pathway serve as a potential molecular target in controlling migration and invasion of GBM.

SMILES: Cn1c(=O)c2c(ncn2C)n(C)c1=O [caffeine]
- intracellular Ca^2+ release (HEK293T cell line): blocked
- increase of tumor mass (U87MG cells): significantly inhibited
- intracellular Ca^2+ release [1]: blocked
- survival rate (human U87MG): significantly increase the survival rate
- proliferation / anchorage-independent growth (colony numbers) (glioma): reduced the anchorage-independent growth of glioma in vitro, in a dose dependent manner; also recorded: significantly inhibited

SMILES: C/C=C(/C)C(=O)O[C@H]1C(C)=C2[C@H]([C@@H]1OC(=O)CCCCCCC)[C@@](C)(OC(C)=O)C[C@H](OC(=O)CCC)[C@@]1(O)[C@H]2OC(=O)[C@@]1(C)O [thapsigargin]
- subsequent increase in [Ca^2+]i by bradykinin after store depletion (GBM cells): completely inhibited

SMILES: COc1ccc2c(c1)CC[C@@H]1[C@@H]2CC[C@]2(C)[C@@H](NCCCCCCN3C(=O)C=CC3=O)CC[C@@H]12 [U73122]
- release of Ca^2+ from intracellular stores in response to activation of GPCRs and RTKs (GBM cells): completely inhibited
